Source: ChEMBL document CHEMBL1146379, “Solid phase synthesis and SAR of small molecule agonists for the GPR40 receptor” (Bioorg Med Chem Lett, 2007)

Columns and labels:
Cytochrome P450 1A2 = target: T1, Cytochrome P450 1A2 (Homo sapiens, UniProt P05177); test: Inhibition of CYP1A2; assay type: ADME
T1 sequence (P05177 whole entry): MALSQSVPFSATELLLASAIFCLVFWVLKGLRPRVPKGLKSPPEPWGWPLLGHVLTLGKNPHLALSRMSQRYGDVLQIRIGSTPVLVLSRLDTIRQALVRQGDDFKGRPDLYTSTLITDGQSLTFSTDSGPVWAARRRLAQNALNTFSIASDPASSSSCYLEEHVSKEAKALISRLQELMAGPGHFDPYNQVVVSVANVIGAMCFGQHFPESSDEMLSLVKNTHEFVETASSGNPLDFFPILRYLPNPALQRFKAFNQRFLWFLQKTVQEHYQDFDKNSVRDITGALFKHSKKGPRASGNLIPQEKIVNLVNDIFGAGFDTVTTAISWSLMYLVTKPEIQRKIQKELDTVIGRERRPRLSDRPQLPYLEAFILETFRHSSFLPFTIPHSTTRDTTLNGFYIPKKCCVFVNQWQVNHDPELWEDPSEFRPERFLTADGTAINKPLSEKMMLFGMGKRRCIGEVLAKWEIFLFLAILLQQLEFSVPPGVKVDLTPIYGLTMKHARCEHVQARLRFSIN

[1] = target: T2, Peroxisome proliferator-activated receptor delta (Homo sapiens, UniProt Q03181); test: Activity at PPARdelta receptor
T2 sequence (Q03181 whole entry): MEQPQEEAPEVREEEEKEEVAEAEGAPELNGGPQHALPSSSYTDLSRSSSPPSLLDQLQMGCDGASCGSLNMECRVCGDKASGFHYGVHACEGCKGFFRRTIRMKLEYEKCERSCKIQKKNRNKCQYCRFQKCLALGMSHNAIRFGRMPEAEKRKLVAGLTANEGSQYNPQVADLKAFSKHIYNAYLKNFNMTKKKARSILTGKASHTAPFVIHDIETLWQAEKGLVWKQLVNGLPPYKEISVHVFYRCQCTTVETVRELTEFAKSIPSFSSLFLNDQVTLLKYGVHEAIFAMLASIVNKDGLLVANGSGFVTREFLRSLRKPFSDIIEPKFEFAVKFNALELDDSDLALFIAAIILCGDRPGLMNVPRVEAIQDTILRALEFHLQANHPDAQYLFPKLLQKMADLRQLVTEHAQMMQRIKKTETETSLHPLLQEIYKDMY

[2] = Clearance in rat; assay type: ADME, organism-based; conditions: in vivo
Homo sapiens [3] = species: Homo sapiens; test: Selectivity for GPR40 over GPR43
Homo sapiens [4] = species: Homo sapiens; test: Selectivity for GPR40 over GPR41
[5] = target: T3, Free fatty acid receptor 2 (Homo sapiens, UniProt O15552); test: Activity at GPR43 receptor
T3 sequence (O15552 whole entry): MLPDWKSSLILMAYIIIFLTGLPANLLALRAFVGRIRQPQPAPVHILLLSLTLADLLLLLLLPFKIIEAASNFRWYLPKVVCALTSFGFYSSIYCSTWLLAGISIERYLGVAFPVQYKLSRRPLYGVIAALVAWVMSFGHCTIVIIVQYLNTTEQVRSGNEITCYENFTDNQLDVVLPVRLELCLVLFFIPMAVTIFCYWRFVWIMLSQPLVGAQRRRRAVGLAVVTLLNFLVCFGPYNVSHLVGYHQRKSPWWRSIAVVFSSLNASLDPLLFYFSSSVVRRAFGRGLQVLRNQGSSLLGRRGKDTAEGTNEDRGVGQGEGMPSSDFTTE

[6] = target: Prostaglandin E2 receptor EP4 subtype (Homo sapiens, UniProt P35408); test: Activity at EP4 receptor
[7] = target: T4, Peroxisome proliferator-activated receptor alpha (Homo sapiens, UniProt Q07869); test: Activity at PPARalpha receptor
T4 sequence (Q07869 whole entry): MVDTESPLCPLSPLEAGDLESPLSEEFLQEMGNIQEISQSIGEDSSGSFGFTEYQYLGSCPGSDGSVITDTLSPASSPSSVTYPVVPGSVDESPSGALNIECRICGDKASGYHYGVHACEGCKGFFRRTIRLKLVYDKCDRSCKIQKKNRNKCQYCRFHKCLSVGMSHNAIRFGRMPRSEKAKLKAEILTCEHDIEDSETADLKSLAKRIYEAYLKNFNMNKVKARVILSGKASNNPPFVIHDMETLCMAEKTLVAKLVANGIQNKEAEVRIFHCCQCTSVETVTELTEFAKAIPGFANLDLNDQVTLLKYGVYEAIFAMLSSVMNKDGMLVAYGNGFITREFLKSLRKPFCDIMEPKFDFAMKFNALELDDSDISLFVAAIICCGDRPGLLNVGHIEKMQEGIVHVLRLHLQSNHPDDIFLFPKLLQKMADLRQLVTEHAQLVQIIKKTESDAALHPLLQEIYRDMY

Liver microsomes = test: Intrinsic clearance in human liver microsomes; assay type: ADME, Microsome
[8] = target: T5, Prostaglandin E2 receptor EP3 subtype (Homo sapiens, UniProt P43115); test: Activity at EP3 receptor
T5 sequence (P43115 whole entry): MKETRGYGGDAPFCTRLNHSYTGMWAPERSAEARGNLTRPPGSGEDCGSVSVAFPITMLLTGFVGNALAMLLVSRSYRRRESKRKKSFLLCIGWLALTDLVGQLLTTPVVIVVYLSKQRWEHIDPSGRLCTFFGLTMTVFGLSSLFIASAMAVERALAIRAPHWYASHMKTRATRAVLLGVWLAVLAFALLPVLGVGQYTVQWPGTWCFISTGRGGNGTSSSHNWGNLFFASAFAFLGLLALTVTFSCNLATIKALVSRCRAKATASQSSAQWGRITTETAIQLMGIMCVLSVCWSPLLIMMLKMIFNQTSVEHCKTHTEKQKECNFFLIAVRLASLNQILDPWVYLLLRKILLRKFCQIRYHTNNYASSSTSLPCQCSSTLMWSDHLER

[9] = Permeability in MDCK cells expressing low Pgp; assay type: ADME, cell-based, Canis lupus familiaris; conditions: dog, MDCK type I; read-out: permeability
[10] = target: T6, Peroxisome proliferator-activated receptor gamma (Homo sapiens, UniProt P37231); test: Activity at PPARgamma receptor
T6 sequence (P37231 whole entry): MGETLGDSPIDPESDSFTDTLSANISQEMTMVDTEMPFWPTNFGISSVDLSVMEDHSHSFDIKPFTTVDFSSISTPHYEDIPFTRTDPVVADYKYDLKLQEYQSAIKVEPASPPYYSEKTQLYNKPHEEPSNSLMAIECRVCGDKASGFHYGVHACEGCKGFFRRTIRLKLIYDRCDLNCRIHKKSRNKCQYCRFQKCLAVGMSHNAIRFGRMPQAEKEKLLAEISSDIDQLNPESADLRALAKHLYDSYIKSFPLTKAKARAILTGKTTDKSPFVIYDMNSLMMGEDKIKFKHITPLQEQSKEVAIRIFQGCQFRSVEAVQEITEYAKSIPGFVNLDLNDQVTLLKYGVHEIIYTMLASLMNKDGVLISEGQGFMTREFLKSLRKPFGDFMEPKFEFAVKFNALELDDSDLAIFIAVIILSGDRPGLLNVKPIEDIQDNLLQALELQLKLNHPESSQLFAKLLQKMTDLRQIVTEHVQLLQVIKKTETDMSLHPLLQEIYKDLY

[11] = Bioavailability in rat; assay type: ADME, organism-based; conditions: in vivo
[12] = Half life in po dosed rat; assay type: ADME, organism-based; conditions: in vivo

Chain of Prostaglandin E2 receptor EP4 subtype (P35408 whole entry): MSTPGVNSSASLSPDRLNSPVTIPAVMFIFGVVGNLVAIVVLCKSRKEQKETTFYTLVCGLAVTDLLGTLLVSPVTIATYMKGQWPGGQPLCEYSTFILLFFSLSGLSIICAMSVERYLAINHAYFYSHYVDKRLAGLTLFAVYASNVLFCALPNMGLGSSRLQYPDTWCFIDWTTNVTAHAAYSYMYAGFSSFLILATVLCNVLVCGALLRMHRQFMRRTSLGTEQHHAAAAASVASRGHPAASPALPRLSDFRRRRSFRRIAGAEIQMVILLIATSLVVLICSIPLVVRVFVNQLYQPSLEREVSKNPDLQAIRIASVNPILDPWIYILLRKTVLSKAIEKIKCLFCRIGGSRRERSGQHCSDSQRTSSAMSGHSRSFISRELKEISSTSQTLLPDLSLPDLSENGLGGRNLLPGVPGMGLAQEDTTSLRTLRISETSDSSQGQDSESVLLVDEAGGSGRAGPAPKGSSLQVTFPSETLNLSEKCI

IC50 (Cytochrome P450 1A2): > 33 µM | Ki [1]: > 3.16 µM | clearance [2]: 24.9 mL/min/kg | Fold change (Homo sapiens [3]): > 500 | Fold change (Homo sapiens [4]): 500 | EC50 [5]: > 50.1 µM | Ki [6]: > 3.16 µM | Ki [7]: > 3.16 µM | CL (Liver microsomes): 0.74 mL/min/g | Ki [8]: 0.398 µM | Papp [9]: 59.9 ×10⁻⁶ cm/s | Ki [10]: > 3.16 µM | bioavailability [11]: 65% | half-life [12]: 5.9 h
Compound: O=C(O)CCc1ccc(NCc2cccc(Oc3ccccc3)c2)cc1 [GW9508]
